Assay results taken from patent publication US20240261417A1, “SOS1 DEGRADING AGENT AND PREPARATION METHOD THEREFOR AND APPLICATION THEREOF” (SHANGHAI LEADINGTAC PHARMACEUTICAL CO. LTD., priority 2021, published 2024).
pIC50: −log10 of the molar value.

Test system: KRAS G12V mutant human lung adenocarcinoma cells NCI-H441
Experiment: 3D cell proliferation inhibition assay, NCI-H441
Type: cell-based
Conditions: Homo sapiens, NCI-H441, 168 h, 7 days, CTG
Protocol: Inhibition of 3D cell proliferation by the compounds was investigated on KRAS G12C mutant human non-small cell lung cancer cells NCI-H358 (ATCC or Stem Cell Bank, Chinese Academy of Sciences), KRAS G12D mutant human metastatic pancreatic adenocarcinoma cells AsPC-1 (ATCC), KRAS G12V mutant human lung adenocarcinoma cells NCI-H441 (ATCC), and KRAS G13D mutant human colorectal adenocarcinoma epithelial cells DLD-1 (ATCC). The specific procedures were as follows:
200 nL of compound solution diluted in a gradient was added to corresponding microwells of a 384-well low-adsorption microwell plate (Corning, 3657) using an Echo sonic pipetting system (Labcyte, Echo 550), so that the final concentration of the test compound in the reaction system was in a range of 20000 nM-0.008 nM. Then 40 μL of cells at a certain density were added to the corresponding microplate. In addition to test wells for the test compounds, both a DMSO control well and a medium control well were set, with the DMSO control well containing DMSO and cells and the medium well containing only medium. After sample loading, the plate cover was applied, and the 384-well low-adsorption microplate was incubated in an incubator at 37° C. with 5% carbon dioxide for 7 days. After 7 days, the microplate was taken out, and 40 μL of CTG reagent (Promega, G9683) was added to each well. The plate was incubated at room temperature for 30 min and read on a microplate reader EnVision using the chemiluminescence program. The inhibition rates of the compounds at each concentration were calculated by the formula for the percentage inhibition of cell proliferation: inhibition rate %=(mean value of DMSO control group−single concentration reading value of compound)/(mean value of DMSO control group−mean value of medium control group)×100, and then nonlinear curve fitting was performed by GraphPad Prism 8 in the logarithmic concentration-inhibition rate to obtain the IC50 values of the compounds.

| Compound | pIC50 |
| --- | --- |
| COc1cc2nc(C)nc(N[C@H](C)c3cc(N)cc(C(F)(F)F)c3)c2cc1[C@H]1CC[C@H](C(=O)N2CCN(CC3CCC4(CC3)CCN(C(=O)c3ccc(Cl)c(N5CCC(=O)NC5=O)c3)CC4)CC2)CC1 [Example 2, 1-(5-(9-((4-((1R,4R)-4-(4-(((R)-1-(3-amino-5-(trifluoromethyl)phenyl)ethyl)amino)-7-methoxy-2-methylquinazolin-6-yl)cyclohexane-1-carbonyl)piperazin-1-yl)methyl)-3-azaspiro[5.5]undecane-3-carbonyl)-2-chlorophenyl)dihydropyrimidine-2,4(1H,3H)-dione] | 6.00 to 7.00 |
| CNCc1ccccc1-c1csc([C@@H](C)Nc2nc(C)nc3cc(OC)c([C@H]4CC[C@H](C(=O)N5CCN(CC6CCC7(CC6)CCN(C(=O)c6ccc(OC)c(N8CCC(=O)NC8=O)c6)CC7)CC5)CC4)cc23)c1 [Example 73, 1-(2-methoxy-5-(9-((4-((1R,4R)-4-(7-methoxy-2-methyl-4-(((R)-1-(4-(2-((methylamino)methyl)phenyl)thien-2-yl)ethyl)amino)quinazolin-6-yl)cyclohexane-1-carbonyl)piperazin-1-yl)methyl)-3-azaspiro[5.5]undecane-3-carbonyl)phenyl)dihydropyrimidine-2,4(1H,3H)-dione] | 6.00 to 7.00 |

Continued, values first:

| pIC50 | Compound |
| --- | --- |
| 7.30 to 7.52 | COc1cc2nc(C)nc(N[C@H](C)c3cc(N)cc(C(F)(F)F)c3)c2cc1[C@H]1CC[C@H](C(=O)N2CCN(CCC3CCC4(CC3)CCN(C(=O)c3ccc(Cl)c(N5CCC(=O)NC5=O)c3)CC4)CC2)CC1 [Example 1, 1-(5-(9-(2-(4-((1R,4R)-4-(4-(((R)-1-(3-amino-5-(trifluoromethyl)phenyl)ethyl)amino)-7-methoxy-2-methylquinazolin-6-yl)cyclohexane-1-carbonyl)piperazin-1-yl)ethyl)-3-azaspiro[5.5]undecane-3-carbonyl)-2-chlorophenyl)dihydropyrimidine-2,4(1H,3H)-dione] |
| ≥ 7.82 | COc1cc2nc(C)nc(N[C@H](C)c3cccc4c3CCS4(=O)=O)c2cc1[C@H]1CC[C@H](C(=O)N2CCN(CC3CCC4(CC3)CCN(C(=O)c3ccc(Cl)c(N5CCC(=O)NC5=O)c3)CC4)CC2)CC1 [Example 10, 1-(2-chloro-5-(9-((4-((1R,4R)-4-(4-(((R)-1-(1,1-dioxo-2,3-dihydrobenzo[b]thiophen-4-yl)ethyl)amino)-7-methoxy-2-methylquinazolin-6-yl)cyclohexane-1-carbonyl)piperazin-1-yl)methyl)-3-azaspiro[5.5]undecane-3-carbonyl)phenyl)dihydropyrimidine-2,4(1H,3H)-dione] |
| 6.00 to 7.00 | COc1cc2nc(C)nc(N[C@H](C)c3cc(N)cc(C(F)(F)F)c3)c2cc1[C@H]1CC[C@H](C(=O)N2CCN(CCOCC3CCN(C(=O)c4ccc(Cl)c(N5CCC(=O)NC5=O)c4)CC3)CC2)CC1 [Example 33, 1-(5-(4-((2-(4-((1R,4R)-4-(4-(((R)-1-(3-amino-5-(trifluoromethyl)phenyl)ethyl)amino)-7-methoxy-2-methylquinazolin-6-yl)cyclohexane-1-carbonyl)piperazin-1-yl)ethoxy)methyl)piperidine-1-carbonyl)-2-chlorophenyl)dihydropyrimidine-2,4(1H,3H)-dione] |
| 7.00 to 7.30 | COc1cc2nc(C)nc(N[C@H](C)c3cc(N)cc(C(F)(F)F)c3)c2cc1[C@H]1CC[C@H](C(=O)N2CCC(CCOCC3CCN(C(=O)c4ccc(Cl)c(N5CCC(=O)NC5=O)c4)CC3)CC2)CC1 [Example 19, 1-(5-(4-((2-(1-((1R,4R)-4-(4-(((R)-1-(3-amino-5-(trifluoromethyl)phenyl)ethyl)amino)-7-methoxy-2-methylquinazolin-6-yl)cyclohexane-1-carbonyl)piperidin-4-yl)ethoxy)methyl)piperidine-1-carbonyl)-2-chlorophenyl)dihydropyrimidine-2,4(1H,3H)-dione] |
